From patent US20170008888A1 (KYORIN PHARMACEUTICAL CO., LTD., priority 2014, published 2017)
Like-named read-outs stand apart in the source and are kept apart here.

What was measured:
[1] = test system: human CD4+ T cells; assay: Cytokines produced by human CD4+ T cells stimulated with PMA/ionomycin; format: cell-based; details: 10 μM compound, PMA/ionomycin 20 h
Text: Freshly isolated human peripheral blood mononuclear cells (PBMCs) were purchased from Astarte Biologics (Redmond, Wash.). CD4+ T cells were isolated from the PBMCs using the EasySep Negative Selection Human CD4+ T Cell Enrichment Kit (Stemcell Technologies, Vancouver, Canada) according to manufacturer's instructions briefly as follows: Unwanted cells were specifically labeled with a cocktail of bispecific tetrameric antibody complexes (TAC) against dextran and cell surface antigens (CD8, CD14, CD16, CD19, CD20, CD36, CD56, CD66b, CD123, TCRγ/δ, glycophorin A). Labeled cells were then targeted for removal by incubation with dextran-coated magnetic particles, leaving the desired CD4+ T cells.
Human CD4+ T cells, isolated as shown in protocol A, were seeded at 2e6 cells/ml in RPMI 1640 containing 10% (v/v) charcoal-dextran treated, heat inactivated FBS (Omega Scientific, Tarzana, Calif.), 0.05 mM 2-Mercaptoethanol (Sigma-Aldrich, St. Louis, Mo.), and 1×Pen/Strep Amphotericin B (Lonza, Allendale, N.J.). Cells were pre-treated with test compounds (10 μM) for 1 h at 37° C. in a humidified atmosphere at 5% CO2. Cells were then stimulated with 50 ng/ml phorbol 12-myristate 13-acetate (PMA)(Sigma-Aldrich, St. Louis, Mo.)+1 μg/ml ionomycin (Life Technologies, Grand Island, N.Y.) for 20 h at 37° C. in a humidified atmosphere at 5% CO2. Supernatant was collected and analyzed using Bio-Plex Pro Human Th17 Cytokine 15-Plex Panel (Bio-Rad Laboratories, Hercules, Calif.) as per manufacturer's protocols. Magnetic beads were read on the Bio-Plex MAGPIX multiplex reader instrument using the accompanying xPONENT 4.2 acquisition software (Bio-Rad Laboratories, Hercules, Calif.). Data were analyzed via the Bio-Plex Manager software v6.1 (Bio-Rad Laboratories).
IL-1β, IL-2, IL-7, and IL-12 (p70) were below the limit of detection under conditions used. The concentrations of the observed analytes of the DMSO control, from top to bottom as listed, are as follows: 31, 585, 24178, 22, 48, 91, 728, 94, 156, 705, 15, 1045, 5501 pg/ml.

[2] = test system: immortalized normal human bronchial epithelial BEAS-2B cells; assay: IL-17A- or IL-17F-mediated cytokine response by BEAS-2B cells; format: cell-based; details: 48 h
Experimental: (§1) The virally immortalized, normal human bronchial epithelial cell line BEAS-2B was purchased from ATCC (Manassas, Va.). Primary bronchial epithelial cells isolated from a patient diagnosed with asthma were obtained from Lonza (Allendale, N.J.). Both cells were maintained in complete Bronchial Epithelial Cell Growth Medium (BEGM) (Lonza). Cells were seeded at 1e5 cells/ml and incubated at 37° C. in a humidified atmosphere at 5% CO2 overnight to adhere. Cells were pre-treated with test compounds (10 μM down by ⅕ in a 3- or 4-point serial dilution series) for 1 h at 37° C. in a humidified atmosphere at 5% CO2. DMSO at a final concentration of 0.1% served as the non-inhibited control. Budesonide (Selleck Chemicals, Houston, Tex.), a clinically approved glucocorticoid steroid for the treatment of asthma, was tested as a positive control at 0.25 μM. Cells were stimulated with 50 ng/ml of either human recombinant IL-17A or IL-17F (eBioscience, San Diego, Calif.), for 48 h. Supernatant was then collected and analyzed for cytokine concentrations using the Bio-Plex Pro Human Cytokine 17-Plex Panel (Bio-Rad Laboratories, Hercules, Calif.) according to the manufacturer's instructions. Magnetic beads were measured on the Bio-Plex MAGPIX multiplex reader instrument using the accompanying xPONENT 4.2 acquisition software (Bio-Rad Laboratories). Data were analyzed via the Bio-Plex Manager software v6.1 (Bio-Rad Laboratories). For the primary asthmatic bronchial epithelial cells, five (+IL-17F) to thirteen (+IL-17A) cytokines were in range of detection under the conditions used. […] Select cytokines were analyzed for comparison using the BEAS-2B cell line.

[3] = test system: primary asthmatic human bronchial epithelial cells; assay: IL-17A- or IL-17F-mediated cytokine response by primary asthmatic human bronchial epithelial cells; format: cell-based; details: Epithelial cell, 48 h, 48 h
Experimental: as §1
BLQ: cytokine levels were below limits of quantitation.

[4] = molecular target: T1, PBRM1 (Homo sapiens, UniProt Q86U86); assay: Bromodomain binding assay: PBRM1
T1 construct: read out by qPCR of the phage DNA
T1 sequence (Q86U86 whole entry): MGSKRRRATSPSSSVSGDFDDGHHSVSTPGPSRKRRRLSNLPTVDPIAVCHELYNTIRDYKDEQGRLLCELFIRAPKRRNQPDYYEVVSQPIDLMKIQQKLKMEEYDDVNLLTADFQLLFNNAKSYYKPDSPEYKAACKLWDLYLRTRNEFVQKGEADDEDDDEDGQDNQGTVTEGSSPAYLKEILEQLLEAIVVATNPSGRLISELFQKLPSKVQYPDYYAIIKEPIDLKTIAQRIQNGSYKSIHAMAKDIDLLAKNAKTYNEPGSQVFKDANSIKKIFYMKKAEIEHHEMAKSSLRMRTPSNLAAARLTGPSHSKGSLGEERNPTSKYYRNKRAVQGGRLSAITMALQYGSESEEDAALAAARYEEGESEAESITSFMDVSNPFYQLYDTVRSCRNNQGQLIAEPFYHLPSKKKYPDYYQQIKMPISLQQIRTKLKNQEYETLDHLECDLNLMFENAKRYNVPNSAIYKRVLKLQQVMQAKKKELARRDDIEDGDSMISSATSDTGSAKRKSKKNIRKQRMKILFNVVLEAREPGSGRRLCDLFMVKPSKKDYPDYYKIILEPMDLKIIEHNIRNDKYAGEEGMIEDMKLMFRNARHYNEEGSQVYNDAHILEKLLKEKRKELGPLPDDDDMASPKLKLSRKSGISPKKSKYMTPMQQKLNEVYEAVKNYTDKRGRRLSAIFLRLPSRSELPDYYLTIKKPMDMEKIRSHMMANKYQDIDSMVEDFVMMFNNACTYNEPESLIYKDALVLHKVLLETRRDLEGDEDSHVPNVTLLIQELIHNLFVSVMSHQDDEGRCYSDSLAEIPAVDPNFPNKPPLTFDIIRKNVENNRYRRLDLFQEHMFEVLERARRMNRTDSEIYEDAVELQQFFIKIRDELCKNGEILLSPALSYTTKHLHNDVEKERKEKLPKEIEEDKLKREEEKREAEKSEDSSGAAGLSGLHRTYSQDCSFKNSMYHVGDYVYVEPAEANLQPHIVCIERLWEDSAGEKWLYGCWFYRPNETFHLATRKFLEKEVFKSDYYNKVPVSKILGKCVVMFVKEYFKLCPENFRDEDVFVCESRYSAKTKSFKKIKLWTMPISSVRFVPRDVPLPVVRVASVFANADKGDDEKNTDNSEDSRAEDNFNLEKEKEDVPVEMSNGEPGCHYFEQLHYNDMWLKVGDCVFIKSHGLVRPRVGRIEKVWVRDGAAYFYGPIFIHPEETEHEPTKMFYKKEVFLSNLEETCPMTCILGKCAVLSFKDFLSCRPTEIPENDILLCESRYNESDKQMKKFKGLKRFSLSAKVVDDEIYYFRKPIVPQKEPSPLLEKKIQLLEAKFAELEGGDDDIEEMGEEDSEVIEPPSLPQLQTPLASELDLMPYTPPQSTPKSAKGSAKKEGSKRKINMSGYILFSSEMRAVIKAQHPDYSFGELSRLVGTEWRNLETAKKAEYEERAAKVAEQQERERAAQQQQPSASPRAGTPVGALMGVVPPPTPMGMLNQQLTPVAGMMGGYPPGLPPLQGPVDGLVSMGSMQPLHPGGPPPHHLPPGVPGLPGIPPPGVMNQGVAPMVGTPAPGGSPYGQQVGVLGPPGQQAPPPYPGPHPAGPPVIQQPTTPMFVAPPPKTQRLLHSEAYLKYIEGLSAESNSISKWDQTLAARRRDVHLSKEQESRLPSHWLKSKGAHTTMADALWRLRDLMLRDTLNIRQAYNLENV
Experimental: (§2) T7 phage strains displaying bromodomains were grown in parallel in 24-well blocks in an E. coli host derived from the BL21 strain. E. coli were grown to log-phase and infected with T7 phage from a frozen stock (multiplicity of infection=0.4) and incubated with shaking at 32° C. until lysis (90-150 minutes). The lysates were centrifuged (5,000×g) and filtered (0.2 μm) to remove cell debris. […] The liganded beads were blocked with excess biotin and washed with blocking buffer (SeaBlock (Pierce), 1% BSA, 0.05 Tween 20, 1 mM DTT) to remove unbound ligand and to reduce non-specific phage binding. […] Test compounds (T62 and 46) were prepared as 1000× stocks in 100% DMSO and subsequently diluted 1:10 in monoethylene glycol (MEG) to create stocks at 100× the screening concentration (resulting stock solution is 10% DMSO/90% MEG). The compounds were then diluted directly into the assays such that the final concentration of DMSO and MEG were 0.1% and 0.9%, respectively. All reactions were performed in polystyrene 96-well plates in a final volume of 0.135 ml. […] The bromodomain concentration in the eluates was measured by qPCR. Compounds were assayed for binding activity against a panel of 40 bromodomain-containing proteins.

[5] = molecular target: T2, CECR2 (Homo sapiens, UniProt Q9BXF3); assay: Bromodomain binding assay: CECR2
T2 construct: T7 phage strains displaying bromodomains were grown in parallel; made in house; host or cells: E. coli host derived from BL21, infected with T7 phage
T2 sequence (Q9BXF3 434-538 limits assumed, species assumed): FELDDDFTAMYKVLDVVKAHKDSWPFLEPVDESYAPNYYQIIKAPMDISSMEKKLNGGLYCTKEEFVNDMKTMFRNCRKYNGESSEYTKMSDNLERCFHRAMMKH
Experimental: as §2

[6] = read-out: Percent inhibition of G-CSF (relative to DMSO control)
[7] = read-out: Percent inhibition of GM-CSF (relative to DMSO control)
[8] = read-out: Percent inhibition of IFNγ (relative to DMSO control)
[9] = read-out: Percent inhibition of IL-4 (relative to DMSO control)
[10] = read-out: Percent inhibition of IL-5 (relative to DMSO control)
[11] = read-out: Percent inhibition of IL-6 (relative to DMSO control)
[12] = read-out: Percent inhibition of IL-8 (relative to DMSO control)
[13] = read-out: Percent inhibition of IL-10 (relative to DMSO control)
[14] = read-out: Percent inhibition of IL-13 (relative to DMSO control)
[15] = read-out: Percent inhibition of IL-17A (relative to DMSO control)
[16] = read-out: Percent inhibition of MCP-1 (relative to DMSO control)
[17] = read-out: Percent inhibition of MIP-1β (relative to DMSO control)
[18] = read-out: Percent inhibition of TNFα (relative to DMSO control)
[19] = +50 ng/ml IL-17A, read-out: EC50 values (μM), IL-6
[20] = +50 ng/ml IL-17A, read-out: EC50 values (μM), IL-8
[21] = +50 ng/ml IL-17F, read-out: EC50 values (μM), IL-6
[22] = +50 ng/ml IL-17F, read-out: EC50 values (μM), IL-8
[23] = +50 ng/ml IL-17A, read-out: EC50 values (μM), G-CSF
[24] = +50 ng/ml IL-17A, read-out: EC50 values (μM), GM-CSF
[25] = +50 ng/ml IL-17A, read-out: EC50 values (μM), IFN-γ
[26] = +50 ng/ml IL-17A, read-out: EC50 values (μM), IL-1β
[27] = +50 ng/ml IL-17A, read-out: EC50 values (μM), IL-2
[28] = +50 ng/ml IL-17A, read-out: EC50 values (μM), MCP-1
[29] = +50 ng/ml IL-17F, read-out: EC50 values (μM), G-CSF
[30] = +50 ng/ml IL-17F, read-out: EC50 values (μM), IFN-γ
[31] = +50 ng/ml IL-17F, read-out: EC50 values (μM), IL-1β

EC50 [3, 23] [µM]	EC50 [3, 24] [µM]	EC50 [3, 25] [µM]	EC50 [3, 26] [µM]	EC50 [3, 27] [µM]	EC50 [3, 19] [µM]	EC50 [3, 20] [µM]	EC50 [3, 28] [µM]	Structure (SMILES)	inhibition at 10 µM [1, 6] [%]	inhibition at 10 µM [1, 7] [%]	inhibition at 10 µM [1, 8] [%]	inhibition at 10 µM [1, 9] [%]	inhibition at 10 µM [1, 10] [%]	inhibition at 10 µM [1, 11] [%]	inhibition at 10 µM [1, 13] [%]	inhibition at 10 µM [1, 14] [%]	inhibition at 10 µM [1, 15] [%]	inhibition at 10 µM [1, 16] [%]	inhibition at 10 µM [1, 17] [%]	inhibition at 10 µM [1, 18] [%]	further results
								CCOc1cc(C(=O)NCC2CC2)ccc1Nc1cc2c(cn1)N(C)C(=O)c1ccccc1N2C [Compound 57]	34.5	95.9	50.9	31.4	42.8	91.1	97.7	55.6	78.8	70.6	56.2	58.3	inhibition at 10 µM [1, 12]: -44.1%
1.66	3.38	> 10	1.26	10.5	0.5	0.51	6.25	CCOc1cc(C(=O)N2CCC(N3CCN(C)CC3)CC2)ccc1Nc1cc2c(cn1)N(C)C(=O)c1ccccc1N2C [Compound 61]	25.3	96.6	-11.8	-7.7	21.9	85.8	97.6	0.6	45.4	65.5	59.2	50.9	EC50 [2, 19]: 0.68 µM; EC50 [2, 20]: 0.42 µM; EC50 [2, 21]: 0.42 µM; EC50 [2, 22]: 0.51 µM; EC50 [3, 29]: 0.91 µM; EC50 [3, 30]: 0.6 µM; EC50 [3, 31]: 0.79 µM; EC50 [3, 21]: 0.38 µM; EC50 [3, 22]: 0.52 µM
								CCOc1cc(C(=O)N2CCNCC2)ccc1Nc1cc2c(cn1)N(C)C(=O)c1ccccc1N2C [Compound 62]	27.6	95.4	15.6	-4.8	29.7	86.9	97.2	19.8	49.7	66.1	66.9	70.1	inhibition at 10 µM [1, 12]: -179%
2.68	4.06	> 10	1.57	> 10	0.56	0.63	> 10	CCOc1cc(C(=O)N2CCC(N3CCN(C)CC3)CC2)ccc1Nc1cc2c(cn1)N(C)C(=O)c1occc1N2C [Compound 65]	36.1	89.5	12.3	10.1	47.7	87.7	98	18.3	39.3	64.2	55.8	56.9	EC50 [3, 29]: 1.77 µM; EC50 [3, 30]: 1.98 µM; EC50 [3, 31]: 1.57 µM; EC50 [3, 21]: 0.59 µM; EC50 [3, 22]: 1.27 µM
0.66	1.39	> 10	0.95	5.31	0.16	0.15	6.1	CCOc1cc(C(=O)N2CC[C@@H](N(C)C)C2)ccc1Nc1cc2c(cn1)N(C)C(=O)c1ccccc1N2C [Compound 115]													EC50 [2, 19]: 0.21 µM; EC50 [2, 20]: 0.42 µM; EC50 [2, 21]: 0.14 µM; EC50 [2, 22]: 0.13 µM; EC50 [3, 29]: 0.21 µM; EC50 [3, 30]: 0.34 µM; EC50 [3, 31]: 0.38 µM; EC50 [3, 21]: 0.34 µM; EC50 [3, 22]: 0.28 µM
								CCOc1cc(C(=O)N[C@H]2CC[C@H](O)CC2)ccc1Nc1cc2c(cn1)N(C)C(=O)c1ccccc1N2C [Compound T62]													Kd [4]: > 20000 nM; Kd [5]: > 20000 nM
